The record followed here is patent publication US20220378739A1, “NATURAL KILLER CELL IMMUNOTHERAPY FOR THE TREATMENT OF GLIOBLASTOMA AND OTHER CANCERS” (BOARD OF REGENTS, THE UNIVERSITY OF TEXAS SYSTEM, priority 2019, published 2022).

One series deals with patient-derived GSCs. In words: Xenogeneic (PDX) NSG mouse model of GBM. Type of series: in vivo. As to the method: To test this prediction, a PDX mouse model of patient-derived GSC was used, in which, ffLuc+ patient-derived GSCs (0.5×10^6) were stereotactically implanted on day 0 through a guide-screw into the right forebrain of NOD/SCID/IL2Rγc null mice (n=4-5 per group). After 7 days, the mice were treated intratumorally with 2.0×10^6 human NK cells every 7 days for 11 weeks (FIG. 5A) with either galunisertib to block the TGF-β signaling or cilengitide to block the integrin pathway. Galunisertib was administered five times a week by oral gavage and cilengitide three times a week by intraperitoneal injection. Animals implanted with tumor that were either untreated or received NK cells alone, galunisertib alone or cilengitide alone served as controls.
To assess the anti-tumor effect of NK cells against GSCs in vivo, a NOD/SCID IL-2R7null (NSG) human xenograft model (Jackson Laboratories, Bar Harbor, Me.) was used. Intracranial implantation of GSCs into male mice was performed as previously described^55. A total of 60 mice were used. 0.5×10^5 GSCs were implanted intracranially into the right frontal lobe of 5 week old NSG mice using a guide-screw system implanted within the skull. To increase uniformity of xenograft uptake and growth, cells were injected into 10 animals simultaneously using a multiport Microinfusion Syringe Pump (Harvard Apparatus, Holliston, Mass.). Animals were anesthetized with xylazine/ketamine during the procedure. For in vivo bioluminescent imaging, GSCs were engineered to express luciferase by lentivirus transduction. Kinetics of tumor growth was monitored using weekly bioluminescence imaging (BLI; Xenogen-IVIS 200 Imaging system; Caliper, Waltham, Mass.). Signal quantitation in photons/second (p/s) was performed by determining the photon flux rate within standardized regions of interest (ROI) using Living Image software (Caliper). […] expanded donor peripheral blood NK cells^56 were injected intracranially via the guide-screw at day 7 post tumor implantation, and then every 7 days for 11 weeks. Mice were treated with either cilengitide or galunisertib (both from MCE Med Chem Express, Monmouth Junction, NJ) in the presence or absence of intracranial NK cell injection. Cilengitide was administered intraperitoneally 3 times a week starting at day 1 (250 μg/100 μl PBS) while galunisertib was administered orally (75 mg/kg) by gavage 5 days a week starting at day 1 (see FIG. 5A). […]
Brain tissue specimens from untreated control mice, mice treated with either NK cells alone, cilengitide alone, galunisertib alone or with combination therapy of NK+ cilengitide or NK+ galunisertib were collected. […] Sections lacking tumor were also evaluated for evidence of meningoencephalitis using a Leica DM 2500 light microscope by a board-certified veterinary pathologist. […]

Another series relates to GSC targets. The experiment in a line: NK cell functional assay (51Cr release; CD107a, IFN-γ, TNF-α) against GSC targets after co-culture with GSCs. Type of series: cell-based, human. The following applies: 48 hours co-culture with GSCs 1:1; inhibitor 10 μM. As to the method:
NK cells were co-cultured for 5 hours with K562 or GSCs target cells at an optimized effector:target ratio of 5:1 together with CD107a PE-CF594 (BD Biosciences), monensin (BD GolgiStopTM) and BFA (Brefeldin A, Sigma Aldrich). NK cells were incubated without targets as the negative control and stimulated with PMA (50 ng/mL) and ionomycin ([…], Sigma Aldrich) as positive control. Cells were collected, washed and stained with surface antibodies (mentioned above), fixed/permeabilized (BD Biosciences) and stained with IFN-7 v450 and TNF-α Alexa700 (BD Biosciences) antibodies.
NK cell cytotoxicity was assessed using chromium (siCr) release assay. Briefly, K562 or GSCs target cells were labeled with siCr (PerkinElmer Life Sciences, Boston, Mass.) at 50 μCi/5×10^5 cells for 2 hours. ^51Cr-labeled K562/GSC targets (5×105) were incubated for 4 h with serially diluted magnetically isolated NK cells in triplicate. Supernatants were then harvested and analysed for ^51Cr content.
For studies of NK cell suppression by GSCs and human astrocytes, magnetically selected healthy NK cells were cultured in Serum-free Stem Cell Growth Medium (SCGM; CellGro/CellGenix) supplemented with 5% glutamine, 5 μM HEPES (both from GIBCO/Invitrogen), and 10% FCS (Biosera) in 96-well flat-bottomed plates (Nunc) at 100,000/100D11. […]

In the case of `Cc1cccc(-c2nn3c(c2-c2ccnc4ccc(C(N)=O)cc24)CCC3)n1` [galunisertib], in the series with patient-derived GSCs (NK cells intratumorally every 7 days for 11 weeks, galunisertib oral 5 times a week, cilengitide i.p. three times a week), the “tumor bioluminescence (BLI), first experiment” value was “tumor bioluminescence rapidly increased”. Besides, the “NK-mediated GBM killing / efficacy in PDX model of GBM (summary statements)” value in the series on patient-derived GSCs (mouse, in vivo) is listed as “enhances NK-mediated GBM killing in vivo”. In addition, in the series with GSC targets, the “GSC-induced NK cell dysfunction: natural cytotoxicity against GSC targets” value is recorded as “preserving the natural cytotoxicity of NK cells against K562 or GSC targets”.
